Source: PMC8602723, “Comparative assessment of antimicrobial, antiradical and cytotoxic activities of cannabidiol and its propyl analogue cannabidivarin” (Scientific Reports, 2021)

Tests used:
[1] = ABTS assay (radical scavenging); conditions: 50% reduction of initial ABTS radical absorbance, 6 min; 95% confidence limits in brackets
Description: An ABTS assay was performed following the procedure described by Lavorgna et al. 2019[66]. The cationic ABTS radical (ABTS^+) was generated by oxidizing ABTS (7 mM) with potassium persulfate (140 mM K2S2O8), and the mixture was incubated for 12–16 h in the dark. The ABTS^+ working solution was diluted to an absorbance of […] OD at 734 nm. […] Distilled water was used for the blank, Trolox was used for the standard control, and methanol was used for the solvent control.
The results are expressed as the median effective concentration (EC50). Furthermore, Trolox equivalent antioxidant capacity (TEAC) values were calculated following the procedure used by Shimamura end colleagues[68]:5 TEAC=EC50Trolox/EC50sample
(§1) All results from five independent experiments are expressed as the IC50 or EC50 as determined by analysis with Prism 5 software (GraphPad Inc., San Diego, CA, USA) and nonlinear regression (log agonist vs. normalized response-variable slope) with a 95% confidence range. Lowest observed adverse effect concentrations (LOAECs) were calculated by one-way ANOVA and Dunnett’s comparison test. Differences compared to the controls were considered significant as follows: *p < 0.05, **p < 0.001 and ***p < 0.0001.

[2] = DPPH assay (radical scavenging); conditions: 50% reduction of initial DPPH radical absorbance, 30 min; 95% confidence limits in brackets
Description: DPPH assay was performed following the protocol described by Brand-Williams et al.[69]. DPPH^⋅ was dissolved in methanol, generating a purple solution (101.43 µM). […] Furthermore, 940 μL of methanol and 60 μL of distilled water were used for the blank. Trolox was used as the standard control, and methanol was used as the solvent control.
The results were expressed as the median effective concentration of sample able to reduce the initial absorbance of the DPPH radical (EC50). Furthermore, TEAC values were calculated in line with Shimamura end colleagues[68] as previously reported.
as §1

SMILES: Cc1c(C)c2c(c(C)c1O)CCC(C)(C(=O)O)O2 (centres unmarked) [TROLOX, 6-Hydroxy-2,5,7,8-tetramethylchromane 2-carboxylic acid, reference compound]
- EC50 [1]: 111 µM
- EC50 [2]: 327 µM
